According to ChEMBL document CHEMBL1201862, “PubChem BioAssay data set” (2004):
Each block holds one compound with its values, some of them ahead of it. Activity calls are given as the source filed them.

Experiments:
[1] = target: Cytochrome P450 2C9 (Homo sapiens, UniProt P11712)
[2] = target: Cytochrome P450 2C19 (Homo sapiens, UniProt P33261); assay: Cytochrome panel assay with activity outcomes. Panel member name: p450-cyp2c19 Compounds with AC50 equal or less than 10 uM are considered active; assay type: functional
[3] = Luminescence Cell-Based Dose Response HTS to Identify Activators of Luciferase Translation or Activity in H4 […] Cells. [Related pubchem assays: 1829 (Project Summary), 1814 (Primary HTS)]; assay type: functional
[4] = target: Cytochrome P450 3A4 (Homo sapiens, UniProt P08684);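 note: CYP3A4 tested as one member of a cytochrome P450 panel screen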
[5] = inhibitors of intracellular T. cruzi replication, confirmation, NIH3T3 host cells, beta-gal luminescence (AID 2044); assay type: functional, cell-based;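 note: intracellular parasites grown in NIH/3T3 mouse fibroblasts as host cells; luminescent beta-galactosidase reporter signal from transgenic T. cruzi replicating inside host cells; inhibitors lower the luminescence signal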
[6] = cytotoxicity toward NIH3T3 fibroblasts, dose response, counter-screen, cell-based, ATP luminescence, mouse fibroblasts (AID 2010); assay type: functional;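 note: cells exposed to compound for about 90 hours before reading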
[7] = target: T1, Rac GTPase-activating protein 1 (Homo sapiens, UniProt Q9H0H5); assay: MgcRacGAP GTPase-activating activity inhibitors, confirmation, biochemical, ADP Hunter fluorescence, primary and confirmatory (AID 624330); assay type: functional
T1 sequence (Q9H0H5 whole entry): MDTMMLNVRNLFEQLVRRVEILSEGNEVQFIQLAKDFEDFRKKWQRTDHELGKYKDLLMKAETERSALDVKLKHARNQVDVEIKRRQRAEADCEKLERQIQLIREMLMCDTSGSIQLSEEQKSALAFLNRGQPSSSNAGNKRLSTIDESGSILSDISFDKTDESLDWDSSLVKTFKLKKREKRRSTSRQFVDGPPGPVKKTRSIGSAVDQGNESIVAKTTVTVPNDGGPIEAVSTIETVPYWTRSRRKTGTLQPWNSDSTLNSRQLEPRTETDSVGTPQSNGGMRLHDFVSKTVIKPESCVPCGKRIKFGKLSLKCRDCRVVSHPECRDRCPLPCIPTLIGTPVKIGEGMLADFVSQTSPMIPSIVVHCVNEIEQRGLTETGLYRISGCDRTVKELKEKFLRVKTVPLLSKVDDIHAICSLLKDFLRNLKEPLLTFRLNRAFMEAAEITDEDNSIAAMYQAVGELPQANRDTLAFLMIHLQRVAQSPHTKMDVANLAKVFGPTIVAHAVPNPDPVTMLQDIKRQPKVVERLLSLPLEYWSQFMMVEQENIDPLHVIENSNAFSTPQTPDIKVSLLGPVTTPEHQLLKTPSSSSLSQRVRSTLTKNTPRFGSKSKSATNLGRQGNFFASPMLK

Chain of Cytochrome P450 2C9 (P11712 whole entry): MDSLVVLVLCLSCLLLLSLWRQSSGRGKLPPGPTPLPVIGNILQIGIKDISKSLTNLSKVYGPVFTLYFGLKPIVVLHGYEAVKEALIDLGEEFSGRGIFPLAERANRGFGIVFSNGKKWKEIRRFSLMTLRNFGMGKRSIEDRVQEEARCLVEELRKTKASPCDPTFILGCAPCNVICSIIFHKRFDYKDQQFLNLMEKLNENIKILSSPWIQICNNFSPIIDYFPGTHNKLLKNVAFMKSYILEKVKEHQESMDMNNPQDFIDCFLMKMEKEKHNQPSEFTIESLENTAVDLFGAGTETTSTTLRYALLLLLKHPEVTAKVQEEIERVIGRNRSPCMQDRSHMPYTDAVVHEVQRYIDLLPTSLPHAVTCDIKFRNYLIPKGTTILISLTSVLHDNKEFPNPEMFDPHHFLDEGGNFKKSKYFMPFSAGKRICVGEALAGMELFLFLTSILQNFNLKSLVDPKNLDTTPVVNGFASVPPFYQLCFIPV
Chain of Cytochrome P450 3A4 (P08684 whole entry): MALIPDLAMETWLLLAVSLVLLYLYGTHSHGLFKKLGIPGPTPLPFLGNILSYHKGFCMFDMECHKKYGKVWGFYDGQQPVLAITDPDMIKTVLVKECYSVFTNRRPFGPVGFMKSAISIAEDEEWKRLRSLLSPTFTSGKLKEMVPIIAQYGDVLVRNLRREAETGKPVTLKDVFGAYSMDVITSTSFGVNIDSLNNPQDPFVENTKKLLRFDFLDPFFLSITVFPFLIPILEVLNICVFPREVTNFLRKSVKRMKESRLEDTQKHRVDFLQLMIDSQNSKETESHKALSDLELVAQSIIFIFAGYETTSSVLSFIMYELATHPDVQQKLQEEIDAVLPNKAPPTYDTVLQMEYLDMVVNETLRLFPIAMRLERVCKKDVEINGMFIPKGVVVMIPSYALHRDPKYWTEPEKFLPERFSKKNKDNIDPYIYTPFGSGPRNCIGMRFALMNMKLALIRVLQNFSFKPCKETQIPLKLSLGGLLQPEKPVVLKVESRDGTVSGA
Chain of Cytochrome P450 2C19 (P33261 whole entry): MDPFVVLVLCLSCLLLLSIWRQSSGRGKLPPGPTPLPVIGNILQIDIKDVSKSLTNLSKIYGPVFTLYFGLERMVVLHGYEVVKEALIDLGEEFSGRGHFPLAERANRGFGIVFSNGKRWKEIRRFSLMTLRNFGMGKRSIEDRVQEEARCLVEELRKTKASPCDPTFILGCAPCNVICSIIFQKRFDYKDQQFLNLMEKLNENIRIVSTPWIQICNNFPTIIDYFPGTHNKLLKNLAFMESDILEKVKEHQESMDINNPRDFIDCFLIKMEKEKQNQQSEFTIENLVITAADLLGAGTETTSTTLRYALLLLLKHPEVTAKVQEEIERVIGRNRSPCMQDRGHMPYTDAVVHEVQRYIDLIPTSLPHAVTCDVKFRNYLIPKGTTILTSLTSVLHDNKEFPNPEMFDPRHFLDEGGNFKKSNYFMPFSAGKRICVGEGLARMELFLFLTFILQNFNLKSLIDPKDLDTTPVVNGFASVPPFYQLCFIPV

AC50 [1]: 0.794 µM (inconclusive)
SMILES: COc1ccc(CNc2ncncc2-c2ccccc2OC)c(OC)c1

AC50 [2]: inconclusive
SMILES: C[C@H]1COC(=O)[C@H]2CCCN2C(=O)[C@@H](C)COC(=O)[C@H](Cc2ccccc2)NC1=O

AC50 [1]: 1.58 µM (inconclusive)
SMILES: O=C(CN(c1ccccc1)S(=O)(=O)c1ccccc1[N+](=O)[O-])NN=C1CCCCCCC1

SMILES: Cc1ccc(NC(=O)c2ccc(OC(=O)CCN3C(=O)c4ccccc4C3=O)cc2)cc1
EC50 [3]: 37.8 µM (active)

AC50 [4]: 5.01 µM (inconclusive)
SMILES: COC(=O)[C@@]1(Cc2ccc(F)cc2)[C@@H]2C(=CC(=O)[C@H]2CC(=O)C(=O)N2CCCC2)CN1C(=O)c1ccccc1

AC50 [4]: 6.31 µM (inconclusive)
SMILES: Cc1cc(Br)ccc1NC(=O)CCSc1ccccc1

SMILES: CN(C)c1nc(NC(C)(C)C)nc(NC(C)(C)C)n1
EC50 [5]: 0.596 µM (active)
EC50 [6]: > 60 µM (not active)

AC50 [2]: inconclusive
SMILES: Cc1ccc(CS(=O)(=O)CCC(=O)NCCCN2CCCC2)cc1

AC50 [4]: 5.01 µM (inconclusive)
AC50 ([2]; read-out: AC50): 6.31 µM (inconclusive)
AC50 [1]: 2.24 µM (inconclusive)
SMILES: CCOC(=O)c1sc(NC(=O)CCCCCN2C(=O)c3cccc4cccc(c34)C2=O)nc1C

AC50 ([2]; read-out: AC50): 3.98 µM (inconclusive)
SMILES: CC(=O)Oc1cc(C(F)(F)F)ccc1C(=O)O [TRIFLUSAL]

AC50 [1]: 15.8 µM (inconclusive)
SMILES: CCC(=O)N[C@@H]1CCc2cccc(OC)c2C1

IC50 [7]: 45.1 µM (active)
SMILES: O=C(CSc1ccc2ccccc2c1)N1CCN(c2ccc(O)cc2)CC1

AC50 [4]: 20 µM (inconclusive)
SMILES: CS(=O)(=O)N1CCC2(CC1)CN(c1ncccn1)C2

AC50 [1]: 2.51 µM (inconclusive)
SMILES: CC(C)C(=O)Nc1ccc(C(=O)NNC(=O)CCCOc2ccc(Cl)cc2Cl)cc1

AC50 [4]: 14.1 µM (inconclusive)
AC50 [1]: 7.94 µM (inconclusive)
SMILES: COC(=O)C1CCN(c2cc(=O)n(C3CCCCC3)c(=O)[nH]2)CC1

AC50 [4]: 25.1 µM (inconclusive)
AC50 [1]: 8.91 µM (inconclusive)
SMILES: CCCCOC(=O)CSc1nnc(-c2cc(OC)c(OC)c(OC)c2)o1

IC50 [7]: 66 µM (active)
SMILES: COc1ccc(OC)c(CN2CCN(Cc3cccc4ccccc34)CC2)c1

AC50 ([2]; read-out: AC50): 2.24 µM (inconclusive)
SMILES: Cc1ccc(/C=N/n2c(S)nnc2COc2ccccc2)s1

SMILES: CC(=O)c1cccc(Nc2cc(C)nc3c(C)cc(C)cc23)c1
EC50 [5]: 1.42 µM (active)
EC50 [6]: > 60 µM (inconclusive)

IC50 [7]: 225 µM (active)
SMILES: COCCNCc1nc(O)c2c(-c3ccccc3)c(C)sc2n1

SMILES: Cc1nn(C(C)C(=O)N2CCCC2)c(=O)c2nn(-c3ccccc3)c(C)c12 (stereo not drawn)
EC50 [5]: 48.4 µM (active)
EC50 [6]: > 60 µM (not active)

SMILES: C[N+]1(C)CCN(c2ccccc2)CC1 [DIMETHYLPHENYLPIPERAZINIUM]
AC50 [4]: 10 µM (inconclusive)

IC50 [7]: 84.1 µM (active)
SMILES: CN1CCN(CCOCCOc2ccc(Br)cc2Cl)CC1

AC50 [4]: 25.1 µM (inconclusive)
SMILES: O=c1c(-c2cccc(Cl)c2)nc2cncnc2n1-c1ccccc1

AC50 [4]: 7.08 µM (inconclusive)
AC50 ([2]; read-out: AC50): 20 µM (inconclusive)
SMILES: CCC(O)CNc1nc(-n2nc(C)cc2C)nc2sc3c(c12)CC(C)(C)OC3 (stereo not drawn)

AC50 [1]: 3.98 µM (inconclusive)
SMILES: Nc1ccc(Oc2ccc3nc(-c4ccccc4)c(-c4ccc([N+](=O)[O-])cc4)nc3c2)cc1

AC50 [4]: 12.6 µM (inconclusive)
SMILES: Cc1noc(C)c1C(=O)N1CCC2(CCN(Cc3ccncc3)CC2)CC1

AC50 [4]: 14.1 µM (inconclusive)
AC50 ([2]; read-out: AC50): 5.01 µM (inconclusive)
SMILES: COc1ccc2oc(C(=O)c3ccccc3)c(N)c2c1

SMILES: CCc1cccc(CN2CCC(CNC(=O)Nc3ccc(Cl)cc3)CC2)c1
EC50 [5]: 1.25 µM (active)
EC50 [6]: > 60 µM (not active)

SMILES: CSc1nc(N)nc(SCC(=O)C23CC4CC(CC(C4)C2)C3)c1C#N
EC50 [5]: 1.59 µM (active)
EC50 [6]: > 60 µM (not active)

SMILES: O=C1C[C@@H](c2ccc(O)cc2)Oc2cc(O)cc(O)c21 [NARINGENIN]
AC50 ([2]; read-out: AC50): 3.98 µM (inconclusive)

AC50 ([2]; read-out: AC50): 20 µM (inconclusive)
SMILES: O=C(NC1CCCCC1)C(c1ccccc1)N1CCOCC1 (stereo not drawn)

AC50 [4]: 15.8 µM (inconclusive)
AC50 ([2]; read-out: AC50): 15.8 µM (inconclusive)
SMILES: Cc1ccccc1-c1ccc2ncnc(N3CCNCC3)c2c1

IC50 [7]: 50.4 µM (active)
SMILES: CN(C)/N=C/c1ccc(OC(=O)c2cccc([N+](=O)[O-])c2)cc1

AC50 [1]: 2.24 µM (inconclusive)
SMILES: CCOC(=O)c1cc(NC(=O)c2ccc(OC)cc2)c(=O)oc1-c1ccccc1

IC50 [7]: 237 µM (active)
SMILES: COc1ccc(NC2CCCN(C(=O)CCCn3cncn3)C2)cc1OC (stereo not drawn)

AC50 [1]: 0.794 µM (inconclusive)
SMILES: CN(Cc1ccco1)c1ncncc1-c1ccc2c(c1)OCO2

AC50 ([2]; read-out: AC50): 15.8 µM (inconclusive)
SMILES: O=C(c1cc(-c2ccncc2)nc2ccccc12)N1CCN(c2ccc(N3CCOCC3)nn2)CC1

IC50 [7]: 157 µM (active)
SMILES: COc1ccccc1N1CCN(CC(=O)c2ccc(F)cc2)CC1

IC50 [7]: 244 µM (active)
SMILES: COc1cc(OC)c(OC)cc1CN1CCN(C(=O)c2cccc3ccccc23)CC1

AC50 [1]: 1.26 µM (inconclusive)
SMILES: Cc1ccccc1-c1ccc2ncnc(NCc3cccs3)c2c1

SMILES: COc1ccc(-c2cnc(N)nc2-c2ccc(OCc3ccccc3)cc2O)cc1
EC50 [5]: 2.19 µM (active)
EC50 [6]: 10.6 µM (active)

SMILES: Cc1[nH]c2ccccc2c1C(=O)CN1CC=C(c2ccccc2)CC1
EC50 [5]: 0.857 µM (active)
EC50 [6]: > 60 µM (not active)

SMILES: CCCN1CCC(N(C)CCc2ccc(OC)c(OC)c2)CC1
EC50 [5]: 0.124 µM (active)
EC50 [6]: > 60 µM (not active)

AC50 ([2]; read-out: AC50): 39.8 µM (inconclusive)
SMILES: CN1CCN(c2ncnc3ccc(-c4ccc5c(c4)OCO5)cc23)CC1

SMILES: O=C1CN2CCN(CC2)CC(=O)Nc2ccc(cc2)S(=O)(=O)c2ccc(cc2)NC(=O)CN2CCN(CC2)CC(=O)Nc2ccc(cc2)S(=O)(=O)c2ccc(cc2)N1
AC50 [1]: 0.398 µM (inconclusive)

SMILES: Cc1cc(/C=C2/NC(=O)N(Cc3ccccc3F)C2=O)c(C)n1C(C)C
EC50 [5]: 0.154 µM (active)
EC50 [6]: > 60 µM (not active)

AC50 [4]: 1.26 µM (inconclusive)
AC50 ([2]; read-out: AC50): 1.26 µM (inconclusive)
SMILES: CCOC(=O)Nc1ccc2c(c1)N(C(=O)CCN1CCN(C)CC1)c1ccccc1S2

AC50 [1]: 1.26 µM (inconclusive)
SMILES: CCC(=O)NC(Nc1sc2c(c1C(=O)OC)CCCC2)(C(F)(F)F)C(F)(F)F

AC50 ([2]; read-out: AC50): 0.0316 µM (inconclusive)
SMILES: O=C(O)C1CCN(c2ncccn2)CC1

SMILES: COc1ccc(CNC(=O)C2CCCN(Cc3nc(-c4cccc(C)c4)oc3C)C2)cc1 (stereo not drawn)
EC50 [5]: 0.381 µM (active)
EC50 [6]: > 60 µM (not active)

SMILES: CCN(CC)CCN(C(=O)c1cccc([N+](=O)[O-])c1)c1nc2ccc(OC)cc2s1
EC50 [5]: 0.158 µM (active)
EC50 [6]: > 60 µM (inconclusive)

AC50 [1]: 28.2 µM (inconclusive)
SMILES: CC(C)(C)C(=O)OCc1cn(-c2ccc(Cl)cc2)nn1

AC50 [4]: 15.8 µM (inconclusive)
SMILES: CCNc1ncc2nc(C)c(=O)n(CCc3ccccc3)c2n1

SMILES: Cn1nc([N+](=O)[O-])nc1Sc1ccc(Cl)cc1
EC50 [5]: 0.108 µM (active)
EC50 [6]: > 30 µM (not active)

SMILES: COc1cc(C(=O)Nc2ccc3c(c2)N(C(=O)CCN(C)C)c2ccccc2CC3)cc(OC)c1OC
EC50 [5]: 0.642 µM (active)
EC50 [6]: > 60 µM (not active)

AC50 [4]: 20 µM (inconclusive)
SMILES: CC(C)CC1NC(=S)N(C2CCCCC2)C1=O (stereo not drawn)

AC50 [1]: 0.501 µM (inconclusive)
SMILES: COc1ccccc1-c1cncnc1NCCc1cnc[nH]1

IC50 [7]: 145 µM (active)
SMILES: COc1cc(C(=O)N/N=C(\C)c2ccc(NC(=O)Cc3ccccc3)cc2)ccc1O

AC50 ([2]; read-out: AC50): 35.5 µM (inconclusive)
SMILES: CCCCNC(=O)C1CCN(Cc2ccccn2)CC1

AC50 [2]: inconclusive
SMILES: CCN(CC)S(=O)(=O)N1CCC(C(=O)NCc2ccc(C)cc2)CC1

AC50 [4]: 25.1 µM (inconclusive)
AC50 ([2]; read-out: AC50): 3.98 µM (inconclusive)
SMILES: CC(=O)OC1COC(N2CCc3cc([N+](=O)[O-])ccc32)C(OC(C)=O)C1OC(C)=O (stereo not drawn)

SMILES: O=C(Nc1ccccc1N1CCCC1)c1ccc([N+](=O)[O-])cc1Cl
EC50 [5]: 2.37 µM (active)
EC50 [6]: > 60 µM (not active)

SMILES: CCCn1c2c(c(O)c(C(=O)Nc3ccc(OC)cc3)c1=O)CCCC2
EC50 [5]: 2.88 µM (active)
EC50 [6]: > 30 µM (not active)
